Experimental data reported in ChEMBL document CHEMBL1140522, “Peptidomimetic inhibitors of farnesyltransferase with high in vitro activity and significant cellular potency” (Bioorg Med Chem Lett, 2007).
Active and inactive are the calls of the source. The calls are words filed in the database; no cut-off is given here.

Target: not listed separately
Assay: Inhibition of farnesyl transferase
Parameters: species or system Homo sapiens

| IC50 [µM] | Structure (SMILES) |
| --- | --- |
| 843 | COc1ccccc1-c1c(CN[C@H](CCSC)C(=O)O)cccc1NC(=O)C[C@H]1COc2ncccc2O1 (mixture of isomers) |
| 0.055 | COc1ccccc1-c1cc(OC[C@@H]2COc3ncccc3O2)ccc1C(=O)N[C@@H](CCSC)C(=O)O (mixture of isomers) |
| 0.075 | CSCC[C@@H](NC(=O)c1ccc(OC[C@H]2COc3ncccc3O2)cc1-c1ccccc1C)C(=O)O |
| 0.045 | CSCC[C@H](NC(=O)c1ccc(OC[C@@H]2COc3ncccc3O2)cc1-c1ccccc1C)C(=O)O |
| 0.053 | CSCC[C@@H](NC(=O)c1ccc(OC[C@@H]2COc3ncccc3O2)cc1-c1ccccc1C)C(=O)O |
| 302 | COc1ccccc1-c1c(CN[C@@H](CCSC)C(=O)O)cccc1NC(=O)C[C@H]1COc2ncccc2O1 |
| 0.05 | CSCC[C@H](NC(=O)c1ccc(OC[C@H]2COc3ncccc3O2)cc1-c1ccccc1C)C(=O)O |
| 12 | CSCC[C@H](NCc1cccc(NC(=O)C[C@H]2COc3ncccc3O2)c1-c1ccccc1C)C(=O)O |
| 0.112 | COc1ccccc1-c1cc(OC[C@@H]2COc3ncccc3O2)ccc1C(=O)N[C@H](CCSC)C(=O)O |
| > 1000 | COc1ccccc1-c1cc(OC[C@H]2COc3ncccc3O2)ccc1C(=O)N[C@H](CCSC)C(=O)O |
| 0.053 | COc1ccccc1-c1cc(OC[C@H]2COc3ncccc3O2)ccc1C(=O)N[C@@H](CCSC)C(=O)O |
| 16 | CSCC[C@H](NCc1cccc(NC(=O)C[C@@H]2COc3ncccc3O2)c1-c1ccccc1C)C(=O)O (mixture of isomers) |
| 151 | COc1ccccc1-c1c(CN[C@@H](CCSC)C(=O)O)cccc1NC(=O)C[C@@H]1COc2ncccc2O1 (mixture of isomers) |
| > 1000 | COc1ccccc1-c1c(CN[C@H](CCSC)C(=O)O)cccc1NC(=O)C[C@@H]1COc2ncccc2O1 |
| > 1000 | CSCC[C@@H](NCc1cccc(NC(=O)C[C@H]2COc3ncccc3O2)c1-c1ccccc1C)C(=O)O (mixture of isomers) |
| > 1000 | CSCC[C@@H](NCc1cccc(NC(=O)C[C@@H]2COc3ncccc3O2)c1-c1ccccc1C)C(=O)O |

System: not listed separately
Assay: Antiproliferative effect on human aortic smooth muscle cells
Assay type: functional

| Structure (SMILES) | IC50 [µM] |
| --- | --- |
| CSCC[C@@H](NC(=O)c1ccc(OC[C@H]2COc3ncccc3O2)cc1-c1ccccc1C)C(=O)O | 238 |
| CSCC[C@H](NC(=O)c1ccc(OC[C@@H]2COc3ncccc3O2)cc1-c1ccccc1C)C(=O)O | 58.8 |
| CSCC[C@@H](NC(=O)c1ccc(OC[C@@H]2COc3ncccc3O2)cc1-c1ccccc1C)C(=O)O | 16.8 |
| CSCC[C@H](NC(=O)c1ccc(OC[C@H]2COc3ncccc3O2)cc1-c1ccccc1C)C(=O)O | 158 |

Organism: Homo sapiens
Assay: Effect on FTase mediated Ras farnesylation in human aortic smooth muscle cells at 250 uM after 72 hrs by Western blot analysis

| Activity | Structure (SMILES) |
| --- | --- |
| Active | CSCC[C@H](NC(=O)c1ccc(OC[C@@H]2COc3ncccc3O2)cc1-c1ccccc1C)C(=O)O |
| Active | CSCC[C@@H](NC(=O)c1ccc(OC[C@@H]2COc3ncccc3O2)cc1-c1ccccc1C)C(=O)O |

Organism: Homo sapiens
Assay: Effect on FTase mediated Ras farnesylation in human aortic smooth muscle cells at 2 uM after 72 hrs by Western blot analysis

| Activity | Structure (SMILES) |
| --- | --- |
| Active | CCC(C)(C)C(=O)O[C@H]1C[C@@H](C)C=C2C=C[C@H](C)[C@H](CC[C@@H]3C[C@@H](O)CC(=O)O3)[C@H]21 |
